In US20030064380A1, “Anergy-regulated molecules” (The Center For Blood Research, Inc., priority 2001, published 2003):
Residues, ends and D or L forms follow the SMILES beside them. *: point of attachment. Cbz = O=C(OCc1ccccc1)*; CH2F = FC*

Tested on: primary Th1 cells
Test: protease inhibitors assay: recovery of antigen responses of anergised primary Th1 cells (ELISA or RNase protection)
Assay type: cell-based, mice
Conditions: single inhibitor, two experiments
Description: Th1 cells were anergised by pretreatment with 1 μg/ml plate-bound antiCD3ε in the presence of 100 μM Z-VAD.fink (Clabiochem), 5 μM NLVS (Calbiochem) and/or 10 μM lactacystein (Calbiochem) for 16 hours. After that, cells were washed three times and left resting for 48-72 hours.
Whether anergy could be prevented by including caspase and proteasome inhibitors in the first step of pretreatment with ionomycin or anti-CD3 was tested to evaluate the functional importance of proteolytic pathways in anergy induction. […] The variability likely reflects the fact that the proteasome inhibitors are toxic, and needed to be washed away hours to days before the assay stimuli (antigen/APC or anti-CD3/anti-CD28) were applied. […] Similar results were obtained with the D5 T cell clone. Thus directed proteolysis of signaling proteins may be one of several mechanisms that cooperate to maintain lymphocyte anergy.

Structure (SMILES) | recovery of IL-2 production [%]
CC(C)CC(C=CS(C)(=O)=O)NC(=O)C(CC(C)C)NC(=O)C(CC(C)C)NC(=O)Cc1cc(I)c(O)c([N+](=O)[O-])c1 (centres unmarked) [NLVS] | 112
COC(=O)C[C@H](NC(=O)[C@H](C)NC(=O)[C@@H](NC(=O)OCc1ccccc1)C(C)C)C(=O)CF [ZVAD] (Cbz-Val-Ala-Asp(OMe)-CH2F) | 90
